The results in this text go back to ChEMBL document CHEMBL1201862, “PubChem BioAssay data set” (2004).

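Cultured in 96-well plates, cells were exposed to test compound for 48 hours across five concentrations. GI50 is the concentration that inhibits growth by half.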 Active and inactive are the calls of the source. No stated cut-off is given here; in the data, active = GI50 up to about 1.1 µM and inactive = higher.

Among the test systems are ACHN; EKVX; HOP-92; HT-29; K562; Malme-3M; NCI-H460; NCI/ADR-RES; OVCAR-5; PC-3; RXF 393; SF-268; SF-295; SK-OV-3; SW-620; TK-10; U-251; UACC-62; SK-MEL-2.
Assay in all cases: inhibition of tumour cell growth, NCI panel, 48 h

For the molecule `Cc1cccc(C2NC(=O)c3ccccc3N2)c1` (stereo not drawn), the GI50 in the assay on ACHN is 12.9 µM (inactive); in the assay on EKVX, 7.76 µM (inactive); in the assay with HOP-92, > 58.9 µM (inactive); in the assay with HT-29, 2.75 µM (inactive); in the assay on K562 it was 0.906 µM (active); in the assay with Malme-3M it was 17.7 µM (inactive). Further, the GI50 in the assay with NCI-H460 is 3.3 µM (inactive); with NCI/ADR-RES it was 4.67 µM (inactive); with OVCAR-5, 17.3 µM (inactive); in the assay with PC-3 it was 3.95 µM (inactive); in the assay with RXF 393 it was 4.44 µM (inactive); with SF-268 it was 11.3 µM (inactive). The GI50 in the assay with SF-295 was 2.88 µM (inactive); in the assay on SK-OV-3, 4.4 µM (inactive); in the assay with SW-620, 5.62 µM (inactive); with TK-10, > 84.1 µM (inactive); in the assay with U-251, 4.95 µM (inactive); in the assay on UACC-62, 6.24 µM (inactive).

Turning to `CC(C)(C)[Si](C)(C)OCC1OC(n2cnc3c(N)ncnc32)C2OC(=S)OC12` (stereo not drawn), the GI50 is 70.8 µM (inactive) in the assay with HOP-92; 29.4 µM (inactive) in the assay on HT-29; 4.84 µM (inactive) in the assay on K562; 23.6 µM (inactive) in the assay with Malme-3M; 32.7 µM (inactive) in the assay with NCI-H460; 23.5 µM (inactive) in the assay on NCI/ADR-RES. In addition, the GI50 in the assay on OVCAR-5 was 26.7 µM (inactive); with PC-3, 22 µM (inactive); with RXF 393, 43.9 µM (inactive); in the assay with SF-295, 37.4 µM (inactive); in the assay on SK-MEL-2, 26 µM (inactive); with SK-OV-3, 19.5 µM (inactive). Besides, the GI50 in the assay with SW-620 is 32.7 µM (inactive); in the assay with TK-10, > 100 µM (inactive); with U-251 it was 25.2 µM (inactive); in the assay with UACC-62, 23.8 µM (inactive).

Turning to `CC(=O)NC1C(OCc2ccccc2)OC(CO)C(O)C1OCC(=O)NC(C)C(=O)NC(CCC(=O)NCCCCCNc1c2ccccc2nc2cccc([N+](=O)[O-])c12)C(N)=O` (stereo not drawn), the GI50 was < 0.0001 µM (active) with ACHN; 0.00197 µM (active) with EKVX; < 0.0001 µM (active) in the assay on HOP-92; < 0.0001 µM (active) in the assay with HT-29; < 0.0001 µM (active) in the assay with K562; < 0.0001 µM (active) in the assay on Malme-3M. The GI50 in the assay with NCI-H460 was < 0.0001 µM (active); in the assay on NCI/ADR-RES, 0.000327 µM (active); in the assay on OVCAR-5, < 0.0001 µM (active); in the assay with PC-3, < 0.0001 µM (active); with RXF 393, < 0.01 µM (active); in the assay with SF-268 it was < 0.0001 µM (active). The GI50 in the assay with SF-295 was < 0.0001 µM (active); in the assay with SK-MEL-2, < 0.0001 µM (active); in the assay on SW-620, < 0.0001 µM (active); in the assay on TK-10, 0.023 µM (active); in the assay on U-251, < 0.0001 µM (active).

As to `CCOC(=O)NNC(=O)NCCCCNC(=O)NNC(=O)OCC`, the GI50 in the assay with ACHN, in the assay on EKVX, with HOP-92, with HT-29, in the assay on K562 and in the assay with NCI-H460 was > 100 µM (inactive) in each case. In addition, the GI50 in the assay on NCI/ADR-RES, in the assay with OVCAR-5, with PC-3, in the assay on RXF 393, in the assay on SF-295 and in the assay on SK-MEL-2 was > 100 µM (inactive) each time. Moreover, the GI50 in the assay with SK-OV-3, with SW-620, in the assay with TK-10, with U-251 and with UACC-62 was > 100 µM (inactive) throughout.

As for `CCCCCCCCCCCCCCCCCCNc1ccn(C2OC(COP(=O)(O)OCC3OC(n4cc(C)c(=O)[nH]c4=O)CC3O)C(O)C2O)c(=O)n1` (stereo not drawn), the GI50 in the assay on ACHN was 21.1 µM (inactive); in the assay with EKVX, 19.4 µM (inactive); with HOP-92, 29.9 µM (inactive); in the assay on HT-29 it was 16.7 µM (inactive); with K562 it was 19.8 µM (inactive); in the assay on Malme-3M it was 16.6 µM (inactive). In addition, the GI50 in the assay on NCI-H460 was 17.9 µM (inactive); in the assay on NCI/ADR-RES it was 15.8 µM (inactive); with OVCAR-5, 14.8 µM (inactive); in the assay on PC-3, 3.1 µM (inactive); in the assay with RXF 393, 12 µM (inactive); in the assay on SF-268, 17.4 µM (inactive). For the same molecule, the GI50 with SF-295 is 18.7 µM (inactive); in the assay on SK-OV-3, 17.1 µM (inactive); with SW-620 it was 15.2 µM (inactive); with TK-10, 5.68 µM (inactive); in the assay on U-251, 18.9 µM (inactive); in the assay with UACC-62 it was 18.4 µM (inactive).

Take `c1ccc2c(c1)CCCN1CCc3ccccc3C21` (stereo not drawn): the GI50 in the assay with ACHN is 68.9 µM (inactive); in the assay on EKVX, 39.9 µM (inactive); in the assay on HOP-92 it was 24.9 µM (inactive); with HT-29 it was 29 µM (inactive); with K562, 30 µM (inactive); in the assay on Malme-3M, > 100 µM (inactive). Moreover, the GI50 in the assay with NCI-H460 is 33.9 µM (inactive); in the assay with NCI/ADR-RES, 78.3 µM (inactive); in the assay with OVCAR-5 it was 42.2 µM (inactive); with PC-3, 41 µM (inactive); with SF-268, 92 µM (inactive); with SF-295 it was 40.2 µM (inactive). The GI50 is 96.6 µM (inactive) with SK-MEL-2; 66.5 µM (inactive) with SK-OV-3; 35.5 µM (inactive) in the assay with SW-620; 61.4 µM (inactive) in the assay with TK-10; 51.5 µM (inactive) in the assay on U-251; 35.2 µM (inactive) in the assay with UACC-62.

As for `CC1=C(C(=O)NNC(=O)C(N)=O)CC(C(=O)NNC(=O)C(N)=O)=C(C)N1`, the GI50 in the assay on ACHN, in the assay on EKVX, in the assay with HOP-92, with HT-29, in the assay with K562 and in the assay on NCI-H460 was > 100 µM (inactive) throughout. Moreover, the GI50 in the assay with NCI/ADR-RES, in the assay with OVCAR-5, in the assay with PC-3, in the assay on RXF 393, in the assay on SF-268 and in the assay on SF-295 was > 100 µM (inactive) throughout. The GI50 in the assay on SK-MEL-2, with SK-OV-3, in the assay on SW-620, with TK-10, with U-251 and in the assay on UACC-62 was > 100 µM (inactive) in each case.

For `CC1(C)CC(C2=NCCO2)CC(C)(C)N1`, the GI50 in the assay with ACHN, in the assay on EKVX, in the assay on HOP-92, in the assay on HT-29, with K562 and in the assay on Malme-3M was > 100 µM (inactive) throughout. Besides, the GI50 in the assay on NCI/ADR-RES, with OVCAR-5, in the assay on PC-3, in the assay on RXF 393, in the assay on SF-268 and with SF-295 was > 100 µM (inactive) each time. The GI50 in the assay on SK-MEL-2, in the assay on SK-OV-3, with TK-10, with U-251 and with UACC-62 was > 100 µM (inactive) throughout.

For the molecule `NC(=O)N/N=C1\CC2C3CC4C2C4C13` (stereo not drawn), the GI50 with ACHN, in the assay on EKVX, in the assay on HOP-92, in the assay with HT-29, in the assay with K562 and with Malme-3M was > 100 µM (inactive) throughout. Besides, the GI50 with NCI-H460, in the assay on NCI/ADR-RES, with OVCAR-5, in the assay on PC-3, in the assay on SF-268 and in the assay on SF-295 was > 100 µM (inactive) throughout. The GI50 in the assay with SK-MEL-2, in the assay on SK-OV-3, in the assay with SW-620, in the assay with TK-10, in the assay with U-251 and in the assay with UACC-62 was > 100 µM (inactive) each time.

In the case of `O=C1/C(=C/c2cccc([N+](=O)[O-])c2)CCCc2ccccc21`, the GI50 with ACHN is 13.7 µM (inactive); in the assay with EKVX, 16 µM (inactive); in the assay on HOP-92, 14.4 µM (inactive); in the assay with HT-29, 9.84 µM (inactive); in the assay with K562, 3.27 µM (inactive); with Malme-3M, 10.3 µM (inactive). Besides, the GI50 was 18.5 µM (inactive) in the assay with NCI-H460; 9.51 µM (inactive) in the assay with NCI/ADR-RES; 13.3 µM (inactive) in the assay with OVCAR-5; 11 µM (inactive) with PC-3; 4.82 µM (inactive) with SF-268; 14.6 µM (inactive) in the assay with SF-295. For the same molecule, the GI50 in the assay with SK-MEL-2 was 11 µM (inactive); with SK-OV-3, 29.4 µM (inactive); with SW-620, 4.76 µM (inactive); in the assay with TK-10, 15.7 µM (inactive); with U-251, 8.71 µM (inactive); in the assay with UACC-62, 10.1 µM (inactive).

Turning to `O=S(=O)(N/C(=N\O)Nc1ccc(Cl)cc1)c1cc(S(=O)(=O)c2ccccc2)cs1`, the GI50 in the assay on ACHN is 16.1 µM (inactive); with EKVX it was 16.3 µM (inactive); in the assay on HOP-92, 9.62 µM (inactive); in the assay on HT-29, 21 µM (inactive); with K562, 10.4 µM (inactive); in the assay with Malme-3M, 14.2 µM (inactive). For the same molecule, the GI50 with NCI-H460 was 17.7 µM (inactive); in the assay on NCI/ADR-RES it was 33.2 µM (inactive); in the assay with OVCAR-5 it was 16.5 µM (inactive); in the assay with PC-3 it was 15 µM (inactive); in the assay on RXF 393, 16.3 µM (inactive); in the assay on SF-268, 11.5 µM (inactive). In addition, the GI50 was 15.8 µM (inactive) in the assay with SF-295; 18.7 µM (inactive) with SK-MEL-2; 19.8 µM (inactive) in the assay with SW-620; 19.2 µM (inactive) in the assay with TK-10; 13.7 µM (inactive) with U-251; 14.8 µM (inactive) in the assay on UACC-62.
